Test results taken from US10364256B2 (GlaxoSmithKline Intellectual Property Development Limited, priority 2015, dated 2019).

What was measured:
[1] = target: T1, full length Keap1 protein / full length NRF2 protein (Homo sapiens, UniProt Q14145); assay: NRF2-Keap1 TR-FRET Low Protein Assay; format: binding; conditions: 1.25 nM Keap1 FlagHis and 2.5 nM biotin-NRF2 added
T1 construct: full length NRF2 protein and full length Keap1 protein (Keap1 exists a dimer) are used; His
Outline: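 Flag-tagged full-length Keap1 was preincubated with compound (3-fold series) for 2.25 h at 37 °C in Tris pH 8.0/MgCl2/NaCl/BSA/DTT/CHAPS. Biotin-Avi-NRF2 (added at 2.5 nM) was then bound for 1.25 h at 4 °C. Eu-streptavidin/anti-Flag-APC TR-FRET (665/615 nm) was read after 1 h at RT, and pIC50 came from a four-parameter fit.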

[2] = target: T2, Keap1 Kelch domain (321-609) / TAMRA-labeled 16mer NRF2 peptide (ETGE motif) (Homo sapiens, UniProt Q14145); assay: NRF2-Keap1 FP Assay (Keap1 Kelch fluorescence polarization); format: binding; conditions: 20 nM Keap1 (321-609), 8 nM Tamra labeled peptide
T2 construct: the Kelch domain (321-609) of Keap1 is used
Outline: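 Compound dilutions (3-fold) were incubated 1 hr at room temperature with 20 nM Keap1 Kelch (321-609) and 8 nM TAMRA-labeled ETGE 16mer peptide. Buffer was 50 mM Tris pH 8.0, 100 mM NaCl, 5 mM MgCl2, 1 mM DTT, 2 mM CHAPS, 0.005% BSA. Fluorescence polarization (mP) was normalized to controls and fitted with a four-parameter equation to give pIC50.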

[3] = tested on: NQO1 specific enzyme activity in BEAS-2B cells (marker for NRF2 activation); assay: BEAS-2B NQO1 MTT Assay; format: cell-based; conditions: Homo sapiens, compound incubated 48 hours, read-out: EC50 (NQO1 specific enzyme activity induction)
Outline: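 BEAS-2B cells treated with compound for 48 h at 37 °C, then lysed; NQO1 activity in lysates measured kinetically by MTT reduction at A570 over 30 min. pEC50 from 3-parameter fit of ΔOD/min versus log concentration; lysate also taken for Cell Titer Glo.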

T2 sequence (Q14145 321-609): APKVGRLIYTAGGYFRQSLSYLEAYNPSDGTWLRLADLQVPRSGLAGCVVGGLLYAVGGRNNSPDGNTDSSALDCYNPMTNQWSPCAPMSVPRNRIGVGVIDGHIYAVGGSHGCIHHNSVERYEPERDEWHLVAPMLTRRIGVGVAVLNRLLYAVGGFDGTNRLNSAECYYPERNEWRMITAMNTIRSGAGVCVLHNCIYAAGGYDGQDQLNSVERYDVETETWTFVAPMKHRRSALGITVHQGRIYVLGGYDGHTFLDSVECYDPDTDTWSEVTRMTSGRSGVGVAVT
T1 sequence (Q14145 whole entry): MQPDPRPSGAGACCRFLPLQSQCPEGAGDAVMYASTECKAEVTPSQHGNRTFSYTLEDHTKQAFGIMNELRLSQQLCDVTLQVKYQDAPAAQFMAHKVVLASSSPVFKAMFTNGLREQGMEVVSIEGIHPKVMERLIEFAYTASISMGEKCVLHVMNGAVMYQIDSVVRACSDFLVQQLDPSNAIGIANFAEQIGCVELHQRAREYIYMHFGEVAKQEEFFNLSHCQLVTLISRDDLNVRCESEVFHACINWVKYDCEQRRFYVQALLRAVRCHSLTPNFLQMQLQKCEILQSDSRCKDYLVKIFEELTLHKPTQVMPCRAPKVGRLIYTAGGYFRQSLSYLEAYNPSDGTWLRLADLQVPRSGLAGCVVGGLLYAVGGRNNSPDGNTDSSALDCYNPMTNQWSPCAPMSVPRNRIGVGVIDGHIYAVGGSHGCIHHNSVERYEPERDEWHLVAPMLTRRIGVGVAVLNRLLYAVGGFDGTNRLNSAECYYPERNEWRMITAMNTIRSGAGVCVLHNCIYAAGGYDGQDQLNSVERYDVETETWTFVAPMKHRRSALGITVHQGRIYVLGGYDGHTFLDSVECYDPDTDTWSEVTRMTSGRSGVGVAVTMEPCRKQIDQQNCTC

Row | SMILES | IC50 [1] [µM] | IC50 [2] [µM] | EC50 [3] [µM]
1 | C[C@H](Oc1cccc(-c2cccc(-n3ncc(C(=O)O)c3[C@@H]3C[C@H]3c3cn(C4CN(C(=O)OC(C)(C)C)C4)nn3)c2)c1)C1CCCCC1 (racemic) [Example 80, 5-(trans-2-(1-(1-(tert-Butoxycarbonyl)azetidin-3-yl)-1H-1,2,3-triazol-4-yl)cyclopropyl)-1-(3′-((S)-1-cyclohexylethoxy)-[1,1′-biphenyl]-3-yl)-1H-pyrazole-4-carboxylic acid] | 0.01 to 0.1 | 0.1 to 1 | 0.01 to 0.1
2 | C[C@H](Oc1cccc(-c2cccc(-n3ncc(C(=O)O)c3[C@@H]3C[C@H]3c3cn(C4COC4)nn3)c2)c1)C1CCCCC1 (racemic) [Example 77, 1-(3′-((S)-1-Cyclohexylethoxy)-[1,1′-biphenyl]-3-yl)-5-(trans-2-(1-(oxetan-3-yl)-1H-1,2,3-triazol-4-yl)cyclopropyl)-1H-pyrazole-4-carboxylic acid] | 0.01 to 0.1 | 0.01 to 0.1 | 0.01 to 0.1
3 | C[C@H](Oc1cccc(-c2cccc(-n3ncc(C(=O)OCOC(=O)c4ccccc4)c3[C@@H]3C[C@H]3c3cn(C)nn3)c2)c1)C1CCCCC1 [Example 111, (Benzoyloxy)methyl 1-(3′-((S)-1-cyclohexylethoxy)-[1,1′-biphenyl]-3-yl)-5-((1R,2R)-2-(1-methyl-1H-1,2,3-triazol-4-yl)cyclopropyl)-1H-pyrazole-4-carboxylate] | 0.1 to 1 | > 10 | 0.001 to 0.01
4 | C[C@H](Oc1cccc(-c2cccc(-n3ncc(C(=O)O)c3[C@@H]3C[C@H]3c3cn(C4CCNCC4)nn3)c2)c1)C1CCCCC1 (racemic) [Example 86, 1-(3′-((S)-1-cyclohexylethoxy)-[1,1′-biphenyl]-3-yl)-5-(trans-2-(1-(piperidin-4-yl)-1H-1,2,3-triazol-4-yl)cyclopropyl)-1H-pyrazole-4-carboxylic Acid] | 0.01 to 0.1 | 0.01 to 0.1 | 0.1 to 1
5 | C[C@H](Oc1cccc(-c2cccc(-n3ncc(C(=O)O)c3[C@@H]3C[C@H]3c3cn(-c4ccccc4)nn3)c2)c1)C1CCCCC1 (racemic) [Example 92] | 0.1 to 1 | 0.01 to 0.1 | 0.001 to 0.01
6 | C[C@H](Oc1cccc(-c2cccc(-n3ncc(C(=O)O)c3[C@@H]3C[C@H]3c3cn(CCO)nn3)c2)c1)C1CCCCC1 (racemic) [Example 90, 1-(3′-((S)-1-Cyclohexylethoxy)-[1,1′-biphenyl]-3-yl)-5-(trans-2-(1-(2-hydroxyethyl)-1H-1,2,3-triazol-4-yl)cyclopropyl)-1H-pyrazole-4-carboxylic acid] | < 0.01 | 0.01 to 0.1 | 0.01 to 0.1
7 | C[C@H](Oc1cccc(-c2cccc(-n3ncc(C(=O)O)c3[C@@H]3C[C@H]3c3cn(Cc4ccccc4)nn3)c2)c1)C1CCCCC1 (racemic) [Example 87, 5-(trans-2-(1-Benzyl-1H-1,2,3-triazol-4-yl)cyclopropyl)-1-(3′-((S)-1-cyclohexylethoxy)-[1,1′-biphenyl]-3-yl)-1H-pyrazole-4-carboxylic Acid] | 0.1 to 1 | 0.1 to 1 | 0.01 to 0.1
8 | CCn1cc([C@@H]2C[C@H]2c2c(C(=O)O)cnn2-c2cccc(-c3cccc(O[C@@H](C)C4CCCCC4)c3)c2)nn1 (racemic) [Example 76, 1-(3′-((S)-1-Cyclohexylethoxy)-[1,1′-biphenyl]-3-yl)-5-(trans-2-(1-ethyl-1H-1,2,3-triazol-4-yl)cyclopropyl)-1H-pyrazole-4-carboxylic acid] | 0.01 to 0.1 | 0.01 to 0.1 | 0.001 to 0.01
9 | C[C@H](Oc1cccc(-c2cccc(-n3ncc(C(=O)O)c3[C@@H]3C[C@H]3c3cn(C4CCCCC4)nn3)c2)c1)C1CCCCC1 (racemic) [Example 84, 5-(trans-2-(1-Cyclohexyl-1H-1,2,3-triazol-4-yl)cyclopropyl)-1-(3′-((S)-1-cyclohexylethoxy)-[1,1′-biphenyl]-3-yl)-1H-pyrazole-4-carboxylic acid] | 0.01 to 0.1 | 0.1 to 1 | 0.01 to 0.1
10 | C[C@H](Oc1cccc(-c2cccc(-n3ncc(C(=O)O)c3[C@@H]3C[C@H]3c3cn(C)nn3)c2)c1)C1CCCCC1 [Example 70, Calcium 1-(3′-((S)-1-Cyclohexylethoxy)-[1,1′-biphenyl]-3-yl)-5-((1R,2R)-2-(1-methyl-1H-1,2,3-triazol-4-yl)cyclopropyl)-1H-pyrazole-4-carboxylate Hydroxide] | < 0.01 | 0.01 to 0.1 | < 0.001

Further lines, with some results ahead:

Row | IC50 [1] [µM] | IC50 [2] [µM] | SMILES | EC50 [3] [µM]
11 | 0.1 to 1 | 0.1 to 1 | Cn1cc([C@@H]2C[C@H]2c2c(C(=O)O)cnn2-c2cccc(-c3cccc(/C=C/C4CCCCC4)c3)c2)nn1 (racemic) [Example 113, rac-1-(3′-((E)-2-Cyclohexylvinyl)-[1,1′-biphenyl]-3-yl)-5-(trans-2-(1-methyl-1H-1,2,3-triazol-4-yl)cyclopropyl)-1H-pyrazole-4-carboxylic Acid] | 0.01 to 0.1
12 | 0.01 to 0.1 | 0.01 to 0.1 | Cn1cc([C@@H]2C[C@H]2c2c(C(=O)O)cnn2-c2cccc(-c3cccc(S(=O)(=O)N4Cc5ccccc5OC(C)(C)C4)c3)c2)nn1 (racemic) [Example 141, 1-(3′-((2,2-Dimethyl-2,3-dihydrobenzo[f][1,4]oxazepin-4(5H)-yl)sulfonyl)-[1,1′-biphenyl]-3-yl)-5-((1,2-trans)-2-(1-methyl-1H-1,2,3-triazol-4-yl)cyclopropyl)-1H-pyrazole-4-carboxylic Acid] | 0.1 to 1
13 | 0.1 to 1 | 0.1 to 1 | CCn1cc([C@H]2C[C@@H]2c2c(C(=O)O)cnn2-c2cc(OC)cc(-c3cccc(OC(C)C4CCCCC4)c3)c2)nn1 (stereo partly drawn) [Example 193, 1-(3′-(1-cyclohexylethoxy)-5-methoxy-[1,1′-biphenyl]-3-yl)-5-((1S,2S)-2-(1-ethyl-1H-1,2,3-triazol-4-yl)cyclopropyl)-1H-pyrazole-4-carboxylic acid] | 0.1 to 1
14 | 0.1 to 1 | 0.1 to 1 | Cn1cc([C@@H]2C[C@H]2c2c(C(=O)O)cnn2-c2cccc(-c3cccc(CN4Cc5ccccc5CC(C)(C)C4)c3)c2)nn1 (racemic) [Example 126, 1-(3′-((4,4-dimethyl-4,5-dihydro-1H-benzo[c]azepin-2(3H)-yl)methyl)-[1,1′-biphenyl]-3-yl)-5-((1,2-trans)-2-(1-methyl-1H-1,2,3-triazol-4-yl)cyclopropyl)-1H-pyrazole-4-carboxylic Acid] | 0.1 to 1
15 | < 0.01 | 0.01 to 0.1 | CC[C@@H]1CN(Cc2cccc(-c3cccc(-n4ncc(C(=O)O)c4[C@H]4C[C@@H]4c4cn(C(C)C)nn4)c3)c2)Cc2ccccc2O1 (racemic) [Example 128, 1-(3′-(((R)-2-ethyl-2,3-dihydrobenzo[f][1,4]oxazepin-4(5H)-yl)methyl)-[1,1′-biphenyl]-3-yl)-5-((1,2-trans)-2-(1-isopropyl-1H-1,2,3-triazol-4-yl)cyclopropyl)-1H-pyrazole-4-carboxylic Acid] | 0.1 to 1
16 | 0.01 to 0.1 | 0.01 to 0.1 | Cn1cc(C2CC2c2c(C(=O)O)cnn2-c2cccc(-c3cccc(OCCC4CCCCC4)c3)c2)nn1 (stereo not drawn) [Example 170, 1-(3′-(2-Cyclohexylethoxy)-[1,1′-biphenyl]-3-yl)-5-(2-(1-methyl-1H-1,2,3-triazol-4-yl)cyclopropyl)-1H-pyrazole-4-carboxylic acid] | 0.1 to 1
17 | 0.01 to 0.1 | 0.1 to 1 | CC(Oc1cccc(-c2cc(O)cc(-n3ncc(C(=O)O)c3[C@H]3C[C@@H]3c3cn(C)nn3)c2)c1)C1CCCCC1 (mixture of isomers) [Example 194] | 0.1 to 1
18 | < 0.01 | 0.01 to 0.1 | C[C@H]1Cc2ccc(Br)cc2S(=O)(=O)N(Cc2cccc(-c3cccc(-n4ncc(C(=O)O)c4[C@@H]4C[C@H]4c4cn(C)nn4)c3)c2)C1 (single isomer, unassigned; isomer 1) [Example 134] | 0.1 to 1
19 | 0.01 to 0.1 | 0.1 to 1 | C[C@H]1Cc2ccccc2S(=O)(=O)N(Cc2cccc(-c3cccc(-n4ncc(C(=O)O)c4[C@H]4C[C@@H]4c4cn(C)nn4)c3)c2)C1 [Example 133, 1-(3′-(((S)-4-methyl-1,1-dioxido-4,5-dihydrobenzo[f][1,2]thiazepin-2(3H)-yl)methyl)-[1,1′ biphenyl]-3-yl)-5-((1S,2S)-2-(1-methyl-1H-1,2,3-triazol-4-yl)cyclopropyl)-1H-pyrazole-4-carboxylic acid] | 1 to 10
20 | < 0.01 | 0.01 to 0.1 | CCC[C@@H]1CCCCN1C(=O)c1cccc(-c2cccc(-n3ncc(C(=O)O)c3[C@@H]3C[C@H]3c3cc(C)no3)c2)c1F (racemic) [Example 117, 1-(2′-fluoro-3′-((R)-2-propylpiperidine-1-carbonyl)-[1,1′-biphenyl]-3-yl)-5-(trans-2-(3-methylisoxazol-5-yl)cyclopropyl)-1H-pyrazole-4-carboxylic Acid] | 0.01 to 0.1
